Experimental data taken from patent US20090227562A1, “Combination of a Selective Noradrenaline Reuptake Unhibitor and a PDEV Inhibitor” (Pfizer Inc., priority 2004, published 2009).

Legend:
[1] = tested on: static allodynia in the CCI rat model; assay: Static allodynia (von Frey hairs) in the chronic constriction injury (CCI) rat model of neuropathic pain; format: in vivo; conditions: CCI rats; for paw withdrawal threshold (PWT), reversal compared to the vehicle treated group: single administration, peak effect 1 h post administration, median [LQ;UQ], 6 rats per group, CCI baseline 2 g; for anti-allodynic effect following single administration: static allodynia, (S,S)-reboxetine 1-3-10-30 mg/kg IP, Compound A 3-10-30 mg/kg SC
Protocol: Male Sprague Dawley rats (175-200 g at time of surgery), obtained from Charles River, Margate, U.K.) were housed in groups of 3-6. All animals were kept under a 12 h light/dark cycle (lights on at 07 h 00 min) with food and water ad libitum. All experiments were carried out by an observer blind to drug treatments. Animals were placed in an anaesthetic chamber and anaesthetised with a 2% isofluorane O2 mixture. The right hind thigh is shaved and swabbed with 1% iodine. Animals were then transferred to a homeothermic blanket for the duration of the procedure and anaesthesia maintained during surgery via a nose cone. The skin was cut along the line of the thigh bone. The common sciatic nerve was exposed at the middle of the thigh by blunt dissection through biceps femoris. Proximal to the sciatic trifurcation, about 7 mm of nerve was freed by inserting forceps under the nerve and the nerve gently lifted out of the thigh. The forceps were gently opened and closed several times to aid clearance of the fascia from the nerve. Suture was pulled under the nerve using forceps and tied in a simple knot until slight resistance was felt and then double knotted. The procedure was repeated until 4 ligatures (4-0 silk) were tied loosely around the nerve with approx 1 mm spacing. The incision was closed in layers and the wound treated with topical antibiotics. Animals were habituated to test cages prior to the assessment of allodynia. Static allodynia was evaluated by application of von Frey hairs (Stoelting, Wood Dale, Ill., USA) in ascending order of force (0.7, 1.2, 1.4, 2, 4, 6, 8, 10, 15 and 26 grams) to the plantar surface of hind paws. […] Once a withdrawal response to a von Frey hair was established, the paw was re-tested, starting with the filament below the one that produced a withdrawal, and subsequently with the remaining filaments in descending force sequence until no withdrawal occurred. The highest force of 26 g lifted the paw as well as eliciting a response, thus represented the cut off point. Each animal had both hind paws tested in this manner. The lowest amount of force required to elicit a response was recorded as paw withdrawal threshold (PWT) in grams. Static allodynia was defined as present if animals responded to a stimulus of, or less than, 4 g, which is innocuous in normal rats. […] Static allodynia was graphically represented as median [LQ;UQ] in a logarithmic scale and data analysed by Kruskall-Wallis test for non-parametric results, followed by Mann-Whitney's U test vs vehicle group for each time point, using Prism Software version 3 (GraphPad, San Diego, USA). […] Data are the peak effects (1 h post administration) for each compound and doses expressed as median [LQ; […] In this specific case it corresponds to the Compound A dose-response line.

serotonin reuptake = conditions: cited from earlier work
dopamine reuptake = conditions: cited from earlier work
norepinephrine reuptake = conditions: as disclosed in WO-A-01/01973; cited from earlier work

Structure (SMILES) | paw withdrawal threshold (PWT), reversal compared to the vehicle treated group ([1]; 30 mg/kg SC) [g] | anti-allodynic effect following single administration [1] | serotonin reuptake inhibition (serotonin reuptake) | dopamine reuptake inhibition (dopamine reuptake) | paw withdrawal threshold (PWT), reversal compared to the vehicle treated group ([1]; 30 mg/kg IP (free base)) [g] | selectivity for the inhibition of norepinephrine reuptake over the inhibition of serotonin reuptake (norepinephrine reuptake)
CCCOc1ccc(S(=O)(=O)N2CCN(CC)CC2)cc1-c1nc2c(CC)n(Cc3ccccn3)nc2c(=O)[nH]1 [Compound A, 3-ethyl-5-[5-(4-ethylpiperazin-1-ylsulphonyl)-2-n-propoxyphenyl]-2-(pyridin-2-yl)methyl-2,6-dihydro-7H-pyrazolo[4,3-d]pyrimidin-7-one] | 6 | dose dependent anti-allodynic effect | – | – | – | –
CCOc1ccccc1OC(c1ccccc1)C1CNCCO1 (racemic) [Reboxetine, (R,R/S,S)-(2-[(2-ethoxyphenoxy)(phenyl)methyl]morpholine)] | – | – | only marginal serotonin reuptake inhibition | no dopamine reuptake inhibition | – | –
CCOc1ccccc1O[C@@H](c1ccccc1)[C@@H]1CNCCO1 [(S,S)-reboxetine] | – | dose dependent anti-allodynic effect | – | – | 6 | greatly enhanced selectivity
